Reference: ChEMBL document CHEMBL1144454, “Design, synthesis, and biological activities of pyrrolylethanoneamine derivatives, a novel class of monoamine oxidases inhibitors” (J Med Chem, 2005)

How the values were obtained:
[1] = Selectivity for bovine Monoamine oxidase A as ratio of Ki(MAO-B)/Ki(MAO-A)
[2] = molecular target: Amine oxidase [flavin-containing] A (Bos taurus) (UniProt P21398); assay: Inhibitory concentbovineion for bovine Monoamine oxidase A
[3] = molecular target: Amine oxidase [flavin-containing] B (Bos taurus) (UniProt P56560)
Chain of Amine oxidase [flavin-containing] B (Bos taurus) (P56560 whole entry, looked up): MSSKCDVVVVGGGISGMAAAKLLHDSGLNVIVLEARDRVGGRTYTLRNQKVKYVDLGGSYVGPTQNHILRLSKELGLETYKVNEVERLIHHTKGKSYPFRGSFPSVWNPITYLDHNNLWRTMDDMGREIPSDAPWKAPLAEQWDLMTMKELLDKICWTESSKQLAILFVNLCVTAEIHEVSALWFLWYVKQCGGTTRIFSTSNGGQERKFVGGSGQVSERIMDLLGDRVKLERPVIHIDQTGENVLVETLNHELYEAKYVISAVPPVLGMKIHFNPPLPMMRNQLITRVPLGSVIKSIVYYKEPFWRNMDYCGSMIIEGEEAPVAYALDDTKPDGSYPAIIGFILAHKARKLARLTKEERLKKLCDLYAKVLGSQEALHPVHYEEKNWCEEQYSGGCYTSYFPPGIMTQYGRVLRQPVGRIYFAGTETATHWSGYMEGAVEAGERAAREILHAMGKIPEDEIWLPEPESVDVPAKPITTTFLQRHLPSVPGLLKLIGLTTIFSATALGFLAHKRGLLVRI

Row | SMILES | A-selectivity [1] | Ki [2] [µM] | Ki [3] [µM]
1 | Cn1cccc1C(O)C(c1ccccc1)N1CCCCC1 (racemic; form 1) [listing 1 of 2 here] | 0.29 | – | –
2 | Cn1cccc1C(=O)[C@@H](c1ccccc1)N1CCCCC1 | – | 0.01 | –
3 | Cn1cccc1C(=O)C(c1ccccc1)N1CCOCC1 (stereo not drawn) | > 286 | 0.35 | > 100
4 | Cn1cccc1C(=O)[C@H](c1ccccc1)N1CCCCC1 | 4100 | 0.1 | 410
5 | Cn1cccc1C(O)C(c1ccccc1)N1CCCCC1 (racemic; form 2) [listing 1 of 2 here] | 140 | – | –
6 | Cn1cccc1C(=O)C(c1ccccc1)N1CCCCC1 (racemic) | 5210 | 0.096 | 500
7 | Cn1cccc1C(=O)[C@@H](c1ccccc1)N1CCCC1 | – | 0.0035 | 700
8 | Cn1cccc1C(=O)[C@@H](c1ccccc1)N1CCSCC1 | 5260 | 0.076 | 400
9 | Cn1cccc1C(=O)[C@H](c1ccccc1)N1CCCC1 | – | 0.0095 | 500
10 | Cn1cccc1C(=O)C(N)c1ccccc1 (stereo not drawn) | 442 | 0.095 | 42
11 | Cn1cccc1C(O)C(c1ccccc1)N1CCCCC1 (single isomer, unassigned; form 1) [listing 1 of 2 here] | > 19 | – | –
12 | CC(C(=O)c1cccn1C)N1CCCCC1 (stereo not drawn) | – | 0.038 | 36
13 | Cn1cccc1C(=O)C(c1ccccc1)N1C(=O)c2ccccc2C1=O (stereo not drawn) | > 123 | 0.81 | > 100
14 | Cn1cccc1C(=O)C(c1ccccc1)N1CCN(Cc2ccccc2)CC1 (stereo not drawn) | 11 | 0.93 | 10
15 | CN(C)C(C(=O)c1cccn1C)c1ccccc1 (stereo not drawn) | 500 | 1.75 | 875
16 | Cn1cccc1C(O)C(c1ccccc1)N1CCCCC1 (stereo in doubt) [listing 1 of 2 here] | 77 | – | –

Row | SMILES | A-selectivity [1] | Ki [2] [µM] | Ki [3] [µM]
17 | Cn1cccc1C(=O)C(c1ccccc1)N1CCSCC1 (stereo not drawn) | > 1000 | 0.1 | > 100
18 | Cn1cccc1C(=O)CN1CCCCC1 | – | 0.007 | 15
19 | Cn1cccc1C(=O)[C@H](c1ccccc1)N1CCSCC1 | 1220 | 0.082 | 100
20 | Cn1cccc1C(O)C(c1ccccc1)N1CCCCC1 (single isomer, unassigned; form 2) [listing 1 of 2 here] | – | 7 | 1.24
21 | Cn1cccc1C(O)C(c1ccccc1)N1CCCCC1 (single isomer, unassigned; (-)) [listing 1 of 2 here] | 0.31 | – | –
22 | Cn1cccc1C(O)CN1CCCCC1 (stereo not drawn) | 47 | 0.51 | 23.9
23 | Cn1cccc1C(O)C(c1ccccc1)N1CCCCC1 (racemic; form 1) [listing 2 of 2 here] | – | 31 | 9.22
24 | Cn1cccc1C(O)C(c1ccccc1)N1CCCCC1 (single isomer, unassigned; (-)) [listing 2 of 2 here] | – | 55 | 17.2
25 | CCOc1ccc(NC(C(=O)c2cccn2C)c2ccccc2)cc1 (stereo not drawn) | > 121 | 0.83 | > 100
26 | Cn1cccc1C(O)C(c1ccccc1)N1CCCCC1 (racemic; form 2) [listing 2 of 2 here] | – | 1 | 140
27 | Cn1cccc1C(=O)C(c1ccccc1)N1CCCC1 (racemic) | – | 0.0075 | 600
28 | Cn1cccc1C(O)C(c1ccccc1)N1CCCCC1 (single isomer, unassigned; form 1) [listing 2 of 2 here] | – | 0.52 | > 10
29 | Cn1cccc1C(O)C(c1ccccc1)N1CCCCC1 (single isomer, unassigned; form 2) [listing 2 of 2 here] | 0.18 | – | –
30 | CN1CCN(C(C(=O)c2cccn2C)c2ccccc2)CC1 (stereo not drawn) | > 288 | 0.347 | > 100
31 | Cn1cccc1C(O)C(c1ccccc1)N1CCCCC1 (stereo in doubt) [listing 2 of 2 here] | – | 0.6 | 46
